Columns and labels:
human GLP-1 receptor = target: T1, human GLP-1 receptor (Homo sapiens, UniProt P43220); experiment: cAMP production (HTRF) in CHO-K1 cells expressing GLP-1 receptor; type: cell-based
T1 construct: expressed in transfected cells; host or cells: CHO-K1 cells

human GLP-2 receptor = target: T2, human GLP-2 receptor (Homo sapiens, UniProt O95838); experiment: cAMP production (HTRF) in CHO-K1 cells expressing GLP-2 receptor; type: cell-based; details: for Emax: CHO-K1, control peptide GLP-2 (1-34), read-out: Max efficacy in % of control peptide; for Emax / EC50: cAMP; for EC50: CHO-K1 human GLP-2 receptor
T2 construct: expressed in transfected cells; host or cells: CHO-K1 cells
T2 sequence (O95838 1-553): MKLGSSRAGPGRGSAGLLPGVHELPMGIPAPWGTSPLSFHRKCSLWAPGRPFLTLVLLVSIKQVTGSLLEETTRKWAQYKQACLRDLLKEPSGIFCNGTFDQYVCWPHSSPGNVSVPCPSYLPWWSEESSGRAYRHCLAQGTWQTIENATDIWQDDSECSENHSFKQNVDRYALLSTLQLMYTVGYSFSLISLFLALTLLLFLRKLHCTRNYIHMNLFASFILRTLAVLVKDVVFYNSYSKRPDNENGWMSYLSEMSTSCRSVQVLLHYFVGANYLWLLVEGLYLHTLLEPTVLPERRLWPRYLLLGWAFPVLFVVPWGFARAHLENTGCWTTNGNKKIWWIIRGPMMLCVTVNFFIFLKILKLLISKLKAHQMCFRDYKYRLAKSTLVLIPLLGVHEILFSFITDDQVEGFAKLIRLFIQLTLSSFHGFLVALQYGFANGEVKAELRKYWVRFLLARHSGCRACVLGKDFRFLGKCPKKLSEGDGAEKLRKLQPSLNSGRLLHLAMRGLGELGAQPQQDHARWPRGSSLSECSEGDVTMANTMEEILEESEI
Protocol: CHO-K1 cells expressing the human GLP-2 receptor grown in media without antibiotic were detached by gentle flushing with PBS-EDTA (5 mM EDTA), recovered by centrifugation and resuspended in assay buffer (KRH: 5 mM KCl, 1.25 mM MgSO4, 124 mM NaCl, 25 mM HEPES, 13.3 mM Glucose, 1.25 mM KH2PO4, 1.45 mM CaCl2), 0.5 g/l BSA).
12 μl of cells were mixed with 12 μl of the test compound (solubilized in PBS/0.5% BSA and finally diluted from a stock solution of 1 mM) at increasing concentrations in 96 wells plates and then incubated 30 min at room temperature. cAMP production was determined after addition of a lysis buffer and 1 hour incubation, by use of competitive immunoassay using cryptate-labeled anti-cAMP and d2-labeled cAMP (HTRF kit from CisBio) with Delta F percentage values calculated according to the manufacturer specification. Dose response curves were performed in parallel with test compounds, and reference compounds.
The HTRF technology is a titration assay based on a competition between labeled cAMP (exogenous) and cAMP produced by the cell after activation of the […]. The dynamic range of the assay was 3-4 fold meaning that the linear range (which enables conversion from raw data to nM of cAMP) is within that range. […] All experiments were conducted in the presence of the non-selective phosphodiesterase inhibitor IBMX (1 mM in final concentration).
The test compounds were tested in a concentration range from […] to 10^−7M
Data is presented as mean values.

FPR2 receptor = target: T3, FPR2 receptor (Homo sapiens, UniProt P25090); details: cited from earlier work
T3 sequence (P25090 1-351): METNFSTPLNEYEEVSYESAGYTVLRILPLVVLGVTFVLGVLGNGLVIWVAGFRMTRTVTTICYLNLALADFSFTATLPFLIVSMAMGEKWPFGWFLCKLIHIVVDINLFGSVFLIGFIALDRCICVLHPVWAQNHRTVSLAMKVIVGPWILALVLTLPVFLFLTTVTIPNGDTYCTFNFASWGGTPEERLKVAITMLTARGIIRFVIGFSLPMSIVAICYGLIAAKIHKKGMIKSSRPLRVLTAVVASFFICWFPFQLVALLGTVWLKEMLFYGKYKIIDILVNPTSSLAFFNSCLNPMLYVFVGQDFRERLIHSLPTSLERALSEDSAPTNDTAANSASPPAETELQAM

T1 sequence (P43220 24-463): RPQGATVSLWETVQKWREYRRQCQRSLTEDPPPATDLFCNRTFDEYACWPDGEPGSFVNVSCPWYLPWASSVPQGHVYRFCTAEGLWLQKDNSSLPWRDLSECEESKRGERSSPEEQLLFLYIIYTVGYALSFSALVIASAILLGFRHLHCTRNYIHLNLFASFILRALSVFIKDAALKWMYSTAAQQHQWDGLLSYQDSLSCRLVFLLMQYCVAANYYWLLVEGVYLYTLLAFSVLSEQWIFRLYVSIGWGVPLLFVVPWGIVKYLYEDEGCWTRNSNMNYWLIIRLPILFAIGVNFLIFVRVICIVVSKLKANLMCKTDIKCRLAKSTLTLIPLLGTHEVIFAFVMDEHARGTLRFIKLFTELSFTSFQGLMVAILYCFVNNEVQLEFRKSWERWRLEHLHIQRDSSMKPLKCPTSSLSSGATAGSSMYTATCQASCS

Row | Compound | Emax (human GLP-2 receptor) | EC50 (human GLP-2 receptor) | further results
1 | CC[C@H](C)[C@H](NC(=O)[C@H](Cc1ccccc1)NC(=O)[C@H](CCC(=O)O)NC(=O)[C@H](CCCCN)NC(=O)[C@H](C)NC(=O)[C@H](C)NC(=O)[C@H](CCC(N)=O)NC(=O)CNC(=O)[C@H](CCC(=O)O)NC(=O)[C@H](CC(C)C)NC(=O)[C@H](Cc1ccc(O)cc1)NC(=O)[C@H](CO)NC(=O)[C@H](CO)NC(=O)[C@@H](NC(=O)[C@H](CC(=O)O)NC(=O)[C@H](CO)NC(=O)[C@@H](NC(=O)[C@H](Cc1ccccc1)NC(=O)[C@@H](NC(=O)CNC(=O)[C@H](CCC(=O)O)NC(=O)CNC(=O)[C@H](Cc1c[nH]cn1)NC(C)=O)[C@@H](C)O)[C@@H](C)O)C(C)C)C(=O)N[C@@H](C)C(=O)N[C@@H](Cc1c[nH]c2ccccc12)C(=O)N[C@@H](CC(C)C)C(=O)N[C@H](C(=O)N[C@@H](CCCCN)C(=O)NCC(=O)N[C@@H](CCCNC(=N)N)C(=O)NCC(=O)N[C@@H](CCCCNC(=O)[C@H](CCCCN)NC(=O)[C@H](CCCCN)NC(C)=O)C(N)=O)C(C)C [Analogue 2] |  |  | EC50 (human GLP-1 receptor): 0.04 nM; Emax (human GLP-1 receptor; CHO-K1, read-out: Max efficacy in % of control peptide): 102%
2 | CC[C@H](C)[C@H](NC(=O)[C@H](Cc1ccccc1)NC(=O)[C@H](CC(=O)O)NC(=O)[C@H](CCCNC(=N)N)NC(=O)[C@H](C)NC(=O)[C@H](C)NC(=O)[C@H](CC(C)C)NC(=O)[C@H](CC(N)=O)NC(=O)[C@H](CC(=O)O)NC(=O)[C@H](CC(C)C)NC(=O)[C@@H](NC(=O)[C@@H](NC(=O)[C@H](CC(N)=O)NC(=O)[C@H](CCSC)NC(=O)[C@H](CCC(=O)O)NC(=O)[C@H](CC(=O)O)NC(=O)[C@H](CO)NC(=O)[C@H](Cc1ccccc1)NC(=O)[C@H](CO)NC(=O)CNC(=O)[C@H](CC(=O)O)NC(=O)[C@H](C)NC(=O)[C@H](Cc1c[nH]cn1)NC(C)=O)[C@@H](C)O)[C@@H](C)CC)C(=O)N[C@@H](CC(N)=O)C(=O)N[C@@H](Cc1c[nH]c2ccccc12)C(=O)N[C@@H](CC(C)C)C(=O)N[C@H](C(=O)N[C@@H](CCC(N)=O)C(=O)N[C@H](C(=O)N[C@@H](CCCCN)C(=O)N[C@H](C(=O)N[C@H](C(=O)N[C@@H](CC(=O)O)C(=O)N[C@@H](CCCCNC(=O)[C@H](CCCCN)NC(=O)[C@H](CCCCN)NC(C)=O)C(N)=O)[C@@H](C)O)[C@@H](C)CC)[C@@H](C)O)[C@@H](C)CC [Analogue 3] | 101% | 3.4 nM | 
3 | CC[C@H](C)[C@H](NC(=O)[C@H](Cc1ccccc1)NC(=O)[C@H](CC(=O)O)NC(=O)[C@H](CCCNC(=N)N)NC(=O)[C@H](C)NC(=O)[C@H](C)NC(=O)[C@H](CC(C)C)NC(=O)[C@H](CC(N)=O)NC(=O)[C@H](CC(=O)O)NC(=O)[C@H](CC(C)C)NC(=O)[C@@H](NC(=O)[C@@H](NC(=O)[C@H](CC(N)=O)NC(=O)[C@H](CCSC)NC(=O)[C@H](CCC(=O)O)NC(=O)[C@H](CC(=O)O)NC(=O)[C@H](CO)NC(=O)[C@H](Cc1ccccc1)NC(=O)[C@H](CO)NC(=O)CNC(=O)[C@H](CC(=O)O)NC(=O)CNC(=O)[C@H](Cc1c[nH]cn1)NC(C)=O)[C@@H](C)O)[C@@H](C)CC)C(=O)N[C@@H](CC(N)=O)C(=O)N[C@@H](Cc1c[nH]c2ccccc12)C(=O)N[C@@H](CC(C)C)C(=O)N[C@H](C(=O)N[C@@H](CCC(N)=O)C(=O)N[C@H](C(=O)N[C@@H](CCCCN)C(=O)N[C@H](C(=O)N[C@H](C(=O)N[C@@H](CC(=O)O)C(=O)N[C@@H](CCCCNC(=O)[C@H](CCCCN)NC(=O)[C@H](CCCCN)NC(C)=O)C(N)=O)[C@@H](C)O)[C@@H](C)CC)[C@@H](C)O)[C@@H](C)CC [Analogue 4] | 102% | 5.9 nM | 
4 | CC[C@H](C)[C@H](NC(=O)[C@H](Cc1ccccc1)NC(=O)[C@H](CC(=O)O)NC(=O)[C@H](CCCNC(=N)N)NC(=O)[C@H](C)NC(=O)[C@H](C)NC(=O)[C@H](CC(C)C)NC(=O)[C@H](CC(N)=O)NC(=O)[C@H](CC(=O)O)NC(=O)[C@H](CC(C)C)NC(=O)[C@@H](NC(=O)[C@@H](NC(=O)[C@H](CC(N)=O)NC(=O)[C@H](CCSC)NC(=O)[C@H](CCC(=O)O)NC(=O)[C@H](CC(=O)O)NC(=O)[C@H](CO)NC(=O)[C@H](Cc1ccccc1)NC(=O)[C@H](CO)NC(=O)CNC(=O)[C@H](CC(=O)O)NC(=O)[C@@H](C)NC(=O)[C@H](Cc1c[nH]cn1)NC(C)=O)[C@@H](C)O)[C@@H](C)CC)C(=O)N[C@@H](CC(N)=O)C(=O)N[C@@H](Cc1c[nH]c2ccccc12)C(=O)N[C@@H](CC(C)C)C(=O)N[C@H](C(=O)N[C@@H](CCC(N)=O)C(=O)N[C@H](C(=O)N[C@@H](CCCCN)C(=O)N[C@H](C(=O)N[C@H](C(=O)N[C@@H](CC(=O)O)C(=O)N[C@@H](CCCCNC(=O)[C@H](CCCCN)NC(=O)[C@H](CCCCN)NC(C)=O)C(N)=O)[C@@H](C)O)[C@@H](C)CC)[C@@H](C)O)[C@@H](C)CC [Analogue 5] | 95.1% | 8.9 nM | 
5 | CC[C@H](C)[C@H](NC(=O)[C@H](Cc1ccccc1)NC(=O)[C@H](CC(=O)O)NC(=O)[C@H](CCCNC(=N)N)NC(=O)[C@H](C)NC(=O)[C@H](C)NC(=O)[C@H](CC(C)C)NC(=O)[C@H](CC(N)=O)NC(=O)[C@H](CC(=O)O)NC(=O)[C@H](CC(C)C)NC(=O)[C@@H](NC(=O)[C@@H](NC(=O)[C@H](CC(N)=O)NC(=O)[C@H](CCSC)NC(=O)[C@H](CCC(=O)O)NC(=O)[C@H](CC(=O)O)NC(=O)[C@H](CO)NC(=O)[C@H](Cc1ccccc1)NC(=O)[C@H](CO)NC(=O)CNC(=O)[C@H](CC(=O)O)NC(=O)[C@H](C)NC(=O)[C@@H](N)Cc1c[nH]cn1)[C@@H](C)O)[C@@H](C)CC)C(=O)N[C@@H](CC(N)=O)C(=O)N[C@@H](Cc1c[nH]c2ccccc12)C(=O)N[C@@H](CC(C)C)C(=O)N[C@H](C(=O)N[C@@H](CCC(N)=O)C(=O)N[C@H](C(=O)N[C@@H](CCCCN)C(=O)N[C@H](C(=O)N[C@H](C(=O)N[C@@H](CC(=O)O)C(=O)N[C@@H](CCCNC(=N)N)C(=O)O)[C@@H](C)O)[C@@H](C)CC)[C@@H](C)O)[C@@H](C)CC [GLP-2 (1-34), reference compound] |  |  | Hill Slope (human GLP-2 receptor; cAMP dose response curve): 0.78
6 | Ac-Ala-Met-Val-Ser-Glu-Phe-Leu-Lys-Gln-Ala-Trp-NH2 (Ac-AMVSEFLKQAW-NH2; listed as Homo sapiens) [Control peptide 2] |  |  | agonism at the FPR2 receptor as described in the literature (FPR2 receptor): described as agonist to the FPR2 receptor- none of them as significantly potent
7 | Ac-Ala-Met-Val-Ser-Glu-Phe-Leu-Lys-Gln-Ala-Trp-Phe-Ile-Glu-Asn-Glu-Glu-Gln-Glu-Tyr-Val-Gln-Thr-Val-Lys-OH (Ac-AMVSEFLKQAWFIENEEQEYVQTVK-OH; listed as Homo sapiens) [Control peptide 1] |  |  | agonism at the FPR2 receptor as described in the literature (FPR2 receptor): described as agonist to the FPR2 receptor- none of them as significantly potent

— patent publication US11141455B2, “Peptide analogues with branched amino acid probe(s)” (priority 2014, dated 2021)
